Holding throughout (test): Kinase profiling
Holding throughout (type): biochemical

One assay deals with T1, NLK (Homo sapiens, UniProt Q9UBE8).
T1 construct: purchased ProQinase (Freiburg, Germany)
T1 sequence (Q9UBE8 1-527): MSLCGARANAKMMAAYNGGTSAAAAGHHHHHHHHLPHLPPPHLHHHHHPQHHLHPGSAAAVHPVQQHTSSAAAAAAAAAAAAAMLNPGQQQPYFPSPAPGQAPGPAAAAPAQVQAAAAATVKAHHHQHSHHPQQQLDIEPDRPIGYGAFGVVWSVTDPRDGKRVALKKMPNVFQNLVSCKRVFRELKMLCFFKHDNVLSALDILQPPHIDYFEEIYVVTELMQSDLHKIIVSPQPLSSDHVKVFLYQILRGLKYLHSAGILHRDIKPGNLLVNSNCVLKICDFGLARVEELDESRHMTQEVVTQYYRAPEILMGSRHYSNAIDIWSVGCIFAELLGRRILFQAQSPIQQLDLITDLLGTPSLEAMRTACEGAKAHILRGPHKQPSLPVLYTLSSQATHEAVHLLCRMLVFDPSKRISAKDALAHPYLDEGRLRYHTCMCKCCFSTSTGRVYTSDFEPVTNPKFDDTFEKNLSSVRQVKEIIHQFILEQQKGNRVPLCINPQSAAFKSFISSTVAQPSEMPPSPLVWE
The procedure:
(§1) The analysis was performed by ProQinase (Freiburg, Germany).

Another assay has as its target T2, MAP3K9 (Homo sapiens, UniProt P80192).
T2 construct: purchased ProQinase (Freiburg, Germany)
On the procedure:
as §1

In another assay the target is T3, ERBB2 (Homo sapiens, UniProt P04626).
T3 construct: purchased ProQinase (Freiburg, Germany)
On the procedure:
as §1

The next assay addresses T4, FGFR2 (Homo sapiens, UniProt P21802).
T4 construct: purchased ProQinase (Freiburg, Germany)
On the procedure:
as §1

The target in a further assay is T5, GRK7 (Homo sapiens, UniProt Q8WTQ7).
T5 construct: purchased ProQinase (Freiburg, Germany)
T5 sequence (Q8WTQ7 1-553): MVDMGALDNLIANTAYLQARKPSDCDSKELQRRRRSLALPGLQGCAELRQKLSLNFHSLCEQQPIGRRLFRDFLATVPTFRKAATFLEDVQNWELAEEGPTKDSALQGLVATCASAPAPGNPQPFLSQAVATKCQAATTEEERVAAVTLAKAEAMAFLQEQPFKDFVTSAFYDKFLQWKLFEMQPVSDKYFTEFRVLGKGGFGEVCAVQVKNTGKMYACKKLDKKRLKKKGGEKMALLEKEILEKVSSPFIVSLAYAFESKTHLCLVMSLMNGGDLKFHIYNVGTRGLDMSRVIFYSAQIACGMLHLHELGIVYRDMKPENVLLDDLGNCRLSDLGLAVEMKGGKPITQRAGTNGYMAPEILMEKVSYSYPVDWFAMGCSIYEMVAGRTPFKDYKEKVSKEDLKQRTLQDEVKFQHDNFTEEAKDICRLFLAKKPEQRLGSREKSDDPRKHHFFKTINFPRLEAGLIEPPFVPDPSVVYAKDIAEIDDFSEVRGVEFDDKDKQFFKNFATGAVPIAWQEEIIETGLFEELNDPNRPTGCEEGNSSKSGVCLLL
On the procedure: as §1

Another assay has as its target T6, PKCalpha (Homo sapiens, UniProt P17252).
T6 construct: purchased ProQinase (Freiburg, Germany)
The procedure:
as §1

The target of the next assay is T7, DCAMKL2 (Homo sapiens, UniProt Q8N568).
T7 construct: purchased ProQinase (Freiburg, Germany)
T7 sequence (Q8N568 1-766): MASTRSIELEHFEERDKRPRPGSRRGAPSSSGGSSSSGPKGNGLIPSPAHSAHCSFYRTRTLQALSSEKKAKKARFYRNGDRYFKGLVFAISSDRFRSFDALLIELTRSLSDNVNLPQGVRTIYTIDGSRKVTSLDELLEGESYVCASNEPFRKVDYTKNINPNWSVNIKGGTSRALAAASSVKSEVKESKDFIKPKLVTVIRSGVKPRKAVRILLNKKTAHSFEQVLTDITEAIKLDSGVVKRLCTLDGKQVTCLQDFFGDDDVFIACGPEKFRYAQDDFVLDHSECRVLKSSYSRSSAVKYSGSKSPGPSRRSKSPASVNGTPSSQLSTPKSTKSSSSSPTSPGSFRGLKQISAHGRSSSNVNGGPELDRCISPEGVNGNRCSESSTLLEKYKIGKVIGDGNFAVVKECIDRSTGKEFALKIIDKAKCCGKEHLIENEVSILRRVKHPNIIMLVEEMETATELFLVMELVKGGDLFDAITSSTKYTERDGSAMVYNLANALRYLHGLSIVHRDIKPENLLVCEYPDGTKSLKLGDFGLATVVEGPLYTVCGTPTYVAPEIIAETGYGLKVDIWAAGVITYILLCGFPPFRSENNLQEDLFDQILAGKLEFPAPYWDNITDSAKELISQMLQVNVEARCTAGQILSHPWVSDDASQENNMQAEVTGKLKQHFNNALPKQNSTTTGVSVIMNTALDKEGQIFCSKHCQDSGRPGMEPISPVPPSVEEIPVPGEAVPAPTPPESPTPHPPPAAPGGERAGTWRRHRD
On the procedure:
as §1

For another assay, the target named is T8, CAMK2G (Homo sapiens, UniProt Q13555).
T8 construct: purchased ProQinase (Freiburg, Germany)
On the procedure: as §1

The target in a further assay is T9, CAMK1D (Homo sapiens, UniProt Q8IU85).
T9 construct: purchased ProQinase (Freiburg, Germany)
The procedure:
as §1

For a further assay, the target named is T10, IRAK4 (Homo sapiens, UniProt Q9NWZ3).
T10 construct: purchased ProQinase (Freiburg, Germany)
T10 sequence (Q9NWZ3 1-460): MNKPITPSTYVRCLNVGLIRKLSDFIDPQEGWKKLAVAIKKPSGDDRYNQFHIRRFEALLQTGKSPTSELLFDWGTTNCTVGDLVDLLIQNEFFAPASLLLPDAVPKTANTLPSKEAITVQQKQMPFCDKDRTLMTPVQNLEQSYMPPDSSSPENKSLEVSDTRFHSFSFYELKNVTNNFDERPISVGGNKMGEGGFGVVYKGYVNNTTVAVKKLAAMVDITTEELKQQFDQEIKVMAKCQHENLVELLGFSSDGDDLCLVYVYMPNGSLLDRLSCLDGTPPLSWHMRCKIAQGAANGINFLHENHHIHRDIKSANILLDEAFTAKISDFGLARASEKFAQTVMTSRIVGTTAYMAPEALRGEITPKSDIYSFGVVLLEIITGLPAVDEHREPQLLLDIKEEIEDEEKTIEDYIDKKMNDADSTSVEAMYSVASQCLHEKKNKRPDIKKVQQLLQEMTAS
The procedure:
as §1

Another assay addresses T11, MLK4 (Homo sapiens, UniProt Q5TCX8).
T11 construct: purchased ProQinase (Freiburg, Germany)
The procedure:
as §1

T4 sequence (P21802 22-821): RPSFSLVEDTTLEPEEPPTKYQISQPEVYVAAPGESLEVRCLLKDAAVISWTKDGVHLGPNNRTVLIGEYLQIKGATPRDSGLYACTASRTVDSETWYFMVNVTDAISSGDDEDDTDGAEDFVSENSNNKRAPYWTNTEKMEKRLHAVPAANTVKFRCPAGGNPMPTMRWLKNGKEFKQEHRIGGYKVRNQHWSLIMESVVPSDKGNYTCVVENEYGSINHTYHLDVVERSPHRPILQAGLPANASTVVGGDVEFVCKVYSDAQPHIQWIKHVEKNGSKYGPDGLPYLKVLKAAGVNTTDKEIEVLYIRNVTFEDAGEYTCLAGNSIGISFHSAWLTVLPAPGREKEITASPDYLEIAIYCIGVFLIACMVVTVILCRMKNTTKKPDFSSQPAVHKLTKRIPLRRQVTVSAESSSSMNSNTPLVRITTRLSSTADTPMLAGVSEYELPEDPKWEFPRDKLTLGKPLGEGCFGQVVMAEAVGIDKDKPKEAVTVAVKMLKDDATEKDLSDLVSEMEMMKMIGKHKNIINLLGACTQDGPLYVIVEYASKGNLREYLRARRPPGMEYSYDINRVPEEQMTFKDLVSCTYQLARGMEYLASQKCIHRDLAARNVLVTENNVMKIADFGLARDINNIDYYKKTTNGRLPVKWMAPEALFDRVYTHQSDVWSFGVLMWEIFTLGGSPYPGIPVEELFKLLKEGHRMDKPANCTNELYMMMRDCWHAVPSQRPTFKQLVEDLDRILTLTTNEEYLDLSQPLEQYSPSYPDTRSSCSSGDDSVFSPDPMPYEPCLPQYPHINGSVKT
T9 sequence (Q8IU85 whole entry): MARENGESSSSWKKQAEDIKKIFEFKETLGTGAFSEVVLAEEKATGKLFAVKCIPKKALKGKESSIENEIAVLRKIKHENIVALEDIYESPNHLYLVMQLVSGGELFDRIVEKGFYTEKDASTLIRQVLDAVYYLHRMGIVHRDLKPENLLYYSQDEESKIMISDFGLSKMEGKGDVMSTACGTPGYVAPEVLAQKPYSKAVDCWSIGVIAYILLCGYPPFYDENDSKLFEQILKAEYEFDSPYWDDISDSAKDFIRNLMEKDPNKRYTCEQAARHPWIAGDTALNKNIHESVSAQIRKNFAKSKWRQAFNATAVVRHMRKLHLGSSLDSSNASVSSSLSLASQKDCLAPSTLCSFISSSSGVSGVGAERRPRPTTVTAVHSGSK
T3 sequence (P04626 23-1255): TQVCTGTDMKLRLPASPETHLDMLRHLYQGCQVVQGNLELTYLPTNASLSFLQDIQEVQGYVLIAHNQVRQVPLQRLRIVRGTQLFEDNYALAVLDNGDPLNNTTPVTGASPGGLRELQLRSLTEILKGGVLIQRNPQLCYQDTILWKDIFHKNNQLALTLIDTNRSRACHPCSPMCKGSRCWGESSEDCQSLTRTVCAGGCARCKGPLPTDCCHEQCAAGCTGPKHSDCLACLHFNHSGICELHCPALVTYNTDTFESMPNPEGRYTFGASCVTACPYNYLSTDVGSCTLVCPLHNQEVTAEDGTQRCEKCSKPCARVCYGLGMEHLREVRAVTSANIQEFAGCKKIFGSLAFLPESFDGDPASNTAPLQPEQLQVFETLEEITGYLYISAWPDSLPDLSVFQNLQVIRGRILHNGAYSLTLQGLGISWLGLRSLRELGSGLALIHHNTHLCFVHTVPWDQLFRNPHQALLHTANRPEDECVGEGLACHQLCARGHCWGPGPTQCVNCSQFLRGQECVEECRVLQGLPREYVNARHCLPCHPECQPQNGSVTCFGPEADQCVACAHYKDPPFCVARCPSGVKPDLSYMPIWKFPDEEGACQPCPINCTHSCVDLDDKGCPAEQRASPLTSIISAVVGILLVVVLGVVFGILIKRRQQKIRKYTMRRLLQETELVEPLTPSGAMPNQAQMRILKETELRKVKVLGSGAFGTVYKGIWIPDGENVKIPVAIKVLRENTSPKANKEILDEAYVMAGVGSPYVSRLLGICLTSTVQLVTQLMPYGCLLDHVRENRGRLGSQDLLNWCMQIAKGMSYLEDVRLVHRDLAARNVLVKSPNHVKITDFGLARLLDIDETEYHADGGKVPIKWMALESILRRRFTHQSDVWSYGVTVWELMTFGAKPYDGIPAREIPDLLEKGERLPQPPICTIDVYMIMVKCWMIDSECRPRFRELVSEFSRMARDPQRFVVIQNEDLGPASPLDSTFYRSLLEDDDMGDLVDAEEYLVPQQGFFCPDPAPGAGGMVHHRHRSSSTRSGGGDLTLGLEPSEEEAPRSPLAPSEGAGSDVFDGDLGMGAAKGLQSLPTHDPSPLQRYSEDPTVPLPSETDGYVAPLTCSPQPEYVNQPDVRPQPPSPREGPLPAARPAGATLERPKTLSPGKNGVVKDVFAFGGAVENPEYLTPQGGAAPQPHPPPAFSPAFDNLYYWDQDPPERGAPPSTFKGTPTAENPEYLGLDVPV
T8 sequence (Q13555 whole entry): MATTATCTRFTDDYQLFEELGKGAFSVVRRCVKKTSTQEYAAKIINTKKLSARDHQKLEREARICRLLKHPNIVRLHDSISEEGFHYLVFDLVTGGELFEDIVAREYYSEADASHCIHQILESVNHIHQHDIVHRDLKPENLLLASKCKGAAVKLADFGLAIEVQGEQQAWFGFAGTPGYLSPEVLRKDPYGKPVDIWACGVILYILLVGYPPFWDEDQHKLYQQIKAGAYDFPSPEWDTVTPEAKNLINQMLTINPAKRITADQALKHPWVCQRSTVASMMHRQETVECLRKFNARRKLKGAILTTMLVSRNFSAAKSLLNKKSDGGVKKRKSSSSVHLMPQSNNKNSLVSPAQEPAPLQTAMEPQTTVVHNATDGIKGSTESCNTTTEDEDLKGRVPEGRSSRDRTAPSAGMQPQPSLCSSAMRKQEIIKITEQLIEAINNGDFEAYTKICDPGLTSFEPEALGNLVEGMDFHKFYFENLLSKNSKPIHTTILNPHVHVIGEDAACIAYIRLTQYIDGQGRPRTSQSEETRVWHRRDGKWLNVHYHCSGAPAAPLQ
T11 sequence (Q5TCX8 whole entry): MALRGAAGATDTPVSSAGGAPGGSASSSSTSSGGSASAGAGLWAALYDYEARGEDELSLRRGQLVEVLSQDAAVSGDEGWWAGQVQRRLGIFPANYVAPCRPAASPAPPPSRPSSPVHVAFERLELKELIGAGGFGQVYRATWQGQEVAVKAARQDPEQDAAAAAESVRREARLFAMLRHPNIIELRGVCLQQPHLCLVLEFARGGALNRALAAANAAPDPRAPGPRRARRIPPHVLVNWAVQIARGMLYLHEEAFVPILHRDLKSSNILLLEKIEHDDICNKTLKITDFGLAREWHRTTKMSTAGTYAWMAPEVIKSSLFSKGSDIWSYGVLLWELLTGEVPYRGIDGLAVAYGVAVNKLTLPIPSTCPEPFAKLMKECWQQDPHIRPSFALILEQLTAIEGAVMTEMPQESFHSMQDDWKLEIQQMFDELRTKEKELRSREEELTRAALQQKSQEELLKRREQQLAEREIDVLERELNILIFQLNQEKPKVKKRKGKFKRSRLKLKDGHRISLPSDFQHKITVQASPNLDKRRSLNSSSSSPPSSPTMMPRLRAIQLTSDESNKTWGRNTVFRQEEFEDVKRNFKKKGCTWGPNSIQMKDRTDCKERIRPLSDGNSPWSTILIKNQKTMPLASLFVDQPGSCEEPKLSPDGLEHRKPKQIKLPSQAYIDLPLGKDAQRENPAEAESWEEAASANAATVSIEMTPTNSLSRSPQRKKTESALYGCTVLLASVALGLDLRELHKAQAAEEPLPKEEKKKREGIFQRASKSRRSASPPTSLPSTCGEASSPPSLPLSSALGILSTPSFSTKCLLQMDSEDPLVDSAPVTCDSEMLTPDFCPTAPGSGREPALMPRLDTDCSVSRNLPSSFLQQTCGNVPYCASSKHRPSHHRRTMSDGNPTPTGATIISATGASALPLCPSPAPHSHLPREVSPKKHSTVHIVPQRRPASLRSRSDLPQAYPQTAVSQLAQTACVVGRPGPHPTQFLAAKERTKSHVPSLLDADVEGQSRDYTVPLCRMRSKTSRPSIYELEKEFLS

Take `O=C(Cc1ccccc1)Nc1ccc(F)c(Nc2ccc3c(c2)CCCCC3=O)c1` [Compound 100]: the Residual activity on NLK (1.0E-05 M) is given as 96 % of control; at NLK (1.0E-06 M) it was 96 % of control; at MAP3K9 (1.0E-05 M), 96 % of control; at MAP3K9 (1.0E-06 M) it was 102 % of control; on ERBB2 (1.0E-05 M), 79 % of control; on ERBB2 (1.0E-06 M), 96 % of control. Also, the Residual activity on FGFR2 (1.0E-05 M) was 51 % of control; at FGFR2 (1.0E-06 M), 90 % of control; on GRK7 (1.0E-05 M), 123 % of control; on GRK7 (1.0E-06 M) it was 121 % of control; at PKCalpha (1.0E-05 M), 82 % of control; at PKCalpha (1.0E-06 M) it was 95 % of control. Also, the Residual activity at DCAMKL2 (1.0E-05 M) is 89 % of control; at DCAMKL2 (1.0E-06 M), 101 % of control; at CAMK2G (1.0E-05 M), 107 % of control; at CAMK2G (1.0E-06 M), 105 % of control; on CAMK1D (1.0E-05 M), 88 % of control; on CAMK1D (1.0E-06 M) it was 85 % of control. Also, the Residual activity was 100 % of control on IRAK4 (1.0E-05 M), 97 % of control on IRAK4 (1.0E-06 M), 102 % of control on MLK4 (1.0E-05 M) and 94 % of control on MLK4 (1.0E-06 M).

As to `O=C(Nc1ccc(F)c(Nc2ccc3c(c2)CCCCC3=O)c1)c1cccc(F)c1` [Compound 109], the Residual activity is 91 % of control at NLK (1.0E-05 M); 97 % of control on NLK (1.0E-06 M); 103 % of control on MAP3K9 (1.0E-05 M); 89 % of control at MAP3K9 (1.0E-06 M); 86 % of control at ERBB2 (1.0E-05 M); 99 % of control on ERBB2 (1.0E-06 M). Besides, the Residual activity at FGFR2 (1.0E-05 M) was 74 % of control; at FGFR2 (1.0E-06 M) it was 97 % of control; at GRK7 (1.0E-05 M) it was 116 % of control; at GRK7 (1.0E-06 M) it was 108 % of control; on PKCalpha (1.0E-05 M) it was 73 % of control; on PKCalpha (1.0E-06 M), 92 % of control. In addition, the Residual activity on DCAMKL2 (1.0E-05 M) was 103 % of control; on DCAMKL2 (1.0E-06 M), 100 % of control; at CAMK2G (1.0E-05 M), 111 % of control; on CAMK2G (1.0E-06 M), 109 % of control; at CAMK1D (1.0E-05 M), 89 % of control; at CAMK1D (1.0E-06 M), 93 % of control. Besides, the Residual activity at IRAK4 (1.0E-05 M) was 93 % of control; at IRAK4 (1.0E-06 M), 92 % of control; at MLK4 (1.0E-05 M) it was 99 % of control; at MLK4 (1.0E-06 M) it was 99 % of control.
